# Source: patent US20260294884A1 (Insilico Medicine IP Limited, priority 2023, published 2026)
# pIC50: −log10 of the molar value. Several values for one entry are separate records, joined by “and”; a condition that tells them apart may be missing. Equal values may be shown once. Read-outs that look alike come from different tables or passages of the source.
# How the values were obtained:
# [1] = test system: Caco-2 cells; assay: Permeability, Caco-2 assay; type: in vitro ADME; details: 37 °C; for Mean Papp A to B: Caco-2, pH 7.40, 2 hours
# Protocol: Permeability of test compounds was determined in Caco-2 Assay. Caco-2 cells purchased from ATCC were seeded onto […] membranes (PET) in 96-well Corning Insert plates at 1×10^5 cells/cm^2, and refreshed medium every 4~5 days until to the 21st to 28th day for confluent cell monolayer formation. The transport buffer in the study was HBSS with 10.0 mM HEPES at pH 7.40±0.05. Test compound was tested at […] bi-directionally in duplicate. Digoxin was tested at 10.0 μM bi-directionally in duplicate, while nadolol and metoprolol were tested at 2.00 μM in A to B direction in duplicate. Final DMSO concentration was adjusted to less than 1%. The plate was incubated for 2 hours in CO2 incubator at 37±1° C., with 5% CO2 at saturated humidity without shaking. And all samples after mixed with acetonitrile containing internal standard were centrifuged at 3200×g for 10 min. For nadolol and metoprolol, 200 μL supernatant solution was diluted with 600 μL ultra-pure water for LC-MS/MS analysis. For digoxin and test compounds, 200 μL supernatant solution was diluted with 200 μL ultra-pure water for LC-MS/MS analysis. Concentrations of test and control compounds in starting solution, donor solution, and receiver solution were quantified by LC-MS/MS methodologies, using peak area ratio of analyte/internal standard. After transport assay, lucifer yellow rejection assay was applied to determine the Caco-2 cell monolayer integrity.
# [2] = test system: LD1-0009-362391 PDX model; parameters: species or system NCG Mice; details: mouse, in vivo
# Protocol: About 50-90 mg tumor pieces were implanted subcutaneously on the right flank of each mouse. The treatments were started when the mean tumor size reaches approximately 150 (100-300) mm^3. The tumor size was measured in two dimensions using a caliper, and the volume was expressed in mm^3 using the formula: V=0.5 a×b^2 where a and b are the long and short diameters of the tumor, respectively.
# (§1) Mice were assigned into groups using randomized block design based on their tumor volumes. The test article administration and the animal numbers in each study group are shown in the following experimental design table 5, the PDX model information are shown in the table 6.
# The PDX model is derived from a patient with invasive breast carcinoma, who received and progressed on multiple prior lines of treatment including docetaxel, epirubicin, cyclophosphamide, gemcitabine, lobaplatin, tamoxifen, nab-paclitaxel, cisplatin, capecitabine, palbociclib and letrozole.
# (§2) For routine monitoring, all study animals were monitored for not only tumor growth but also behavior such as mobility, food, and water consumption (by cage side checking only), body weight (BW), eye/hair matting and any other abnormal effect. Any mortality and/or abnormal clinical signs were recorded.
# The measurement of tumor size was conducted twice a week. The tumor size was measured in two dimensions using a caliper, and the volume will be expressed in mm^3 using the formula: V=0.5a×b^2 where a and b are the long and short diameters of the tumor, respectively. The tumor sizes are used for the calculations of T/C values. The T/C value (in percent) is an indication of antitumor efficacy, T/C=RTV of treated group/RTV of Control group, RTV=Vt/V0, Vt is the mean volume after treatment on a given day, V0 is the mean tumor volume at the beginning of administration. Meanwhile the tumor volume is used for calculation of TGI of each group according to the following formula: When Tti−Tt0 >0, TGI (%)=[1−(Tti−Tt0)/(Vci−Vc0)]×100; when Tti−Tt0<0, TGI (%)=[1−(Tti−Tt0)/Tt0]×100. […]
# [3] = Body weight change in PDX study in NCG mice; type: in vivo; details: P.O QD × 27; all mice
# Description: as §1, §2
# Body weights of all animals were measured twice a week throughout the study. Body weight change, expressed in %, is calculated using the following formula: BWL (%)=(BWi−BW0)/BW0×100, BWi is the body weight, BW0 is the bodyweight on the first day of treatment.
# The statistical software GraphPad Prism was used to analyze the difference in tumor volume and body weight between the treatment group and the vehicle control group. All the data is described as Mean±SEM, and one-way ANOVA analysis of variance was performed.
# [4] = test system: ER+/KAT6a^high ZR-75-1 breast cancer cell line; assay: In vitro cytotoxicity in ER+/KAT6a^high ZR-75-1 breast cancer cell line (CTG assay, 14 days); type: cell-based, Human
# Protocol: Single agent experiments (n=3 per each compound) were performed to obtain the IC10, IC25, IC50 and IC75 values for each drug to be used hereafter in the combo treatment.
# The cytotoxicity was evaluated by CTG assay upon 14 days of treatment and stimulation with 1 nM E2. Statistical analysis was performed by 2 way ANOVA Tukey's multiple comparison test (* 0.01<p<0.05).
# Human ER+/KAT6A^high breast cancer cell line ZR-75-1 (ATCC, Virginia, US) was cultured in RPMI 1640 medium (Gibco, Life Technologies, Carlsbad, CA, USA) supplemented with 10% fetal bovine serum (FBS)(Sigma, Saint Louis, CA, USA). All cells were incubated at 37° C., 5% CO2, 80-95% relative humidity.
# Stock solutions were added at appropriate concentration in culture medium before the addition to cells.
# For the cytotoxicity assay, cells were previously starved 48 h in RPMI 1640 no phenol red supplemented with 8% charcoal stripped FBS, and then seeded at appropriate density (2000 cells/well) in starvation media the day before starting the treatment. […] Concentration range was previously identified in single agent cytotoxic assay for the same time points in order to include in the combination experiment IC10, IC25, IC50 and IC75 values for each drug. After 14 days of treatment, CellTiter-Glo® 2.0 Cell Viability Assay (CTG)(Promega, Madison, WI, USA) was added to assess cell viability. Luminescence was measured 10 min later using Tecan Infinite M200 (Tecan Trading AG, Switzerland).
# [5] = single agent, 1 nM E2, read-out: IC50
Mean Papp A to B [1],SMILES,also measured
12.9 10^-6 cm/s,"COc1cccc(OC)c1S(=O)(=O)Nc1noc2cc(Oc3ccccn3)c3c(c12)OCCC3 [Compound 24, 2,6-dimethoxy-N-(5-(pyridin-2-yloxy)-3,4-dihydro-2H-chromeno[8,7-d]isoxazol-9-yl)benzenesulfonamide]","Efflux Ratio ([1]; Caco-2, bi-directional, pH 7.40, 2 hours): 3.2"
2.38 10^-6 cm/s,"COc1ccnc(OC)c1S(=O)(=O)Nc1noc2cc(Oc3ccccn3)c3c(c12)OCCC3 [Compound 28, 2,4-dimethoxy-N-(5-(pyridin-2-yloxy)-3,4-dihydro-2H-chromeno[8,7-d]isoxazol-9-yl)pyridine-3-sulfonamide]",
3.53 10^-6 cm/s,COc1cccc(OC)c1S(=O)(=O)Nc1noc2cc(Cc3nccs3)c3c(c12)OCCC3 [Compound 47],
5.28 10^-6 cm/s,"COc1ccccc1S(=O)(=O)Nc1noc2cc(Oc3nccs3)cc(OCF)c12 [Compound 56, N-(4-(fluoromethoxy)-6-(thiazol-2-yloxy)benzo[d]isoxazol-3-yl)-2-methoxybenzenesulfonamide]",
13.7 10^-6 cm/s,"COc1ccccc1S(=O)(=O)Nc1noc2cc(Oc3nccs3)cc(OC)c12 [Compound 60, 2-methoxy-N-(4-methoxy-6-(thiazol-2-yloxy)benzo[d]isoxazol-3-yl)benzenesulfonamide]",
9.38 10^-6 cm/s,"COc1ccccc1S(=O)(=O)Nc1noc2cc(Oc3nccs3)c3c(c12)OCCC3 [Compound 61, 2-methoxy-N-(5-(thiazol-2-yloxy)-3,4-dihydro-2H-chromeno[8,7-d]isoxazol-9-yl)benzenesulfonamide]",
10.6 10^-6 cm/s,"COc1cccc(OC)c1S(=O)(=O)Nc1noc2cc(Oc3nccs3)c3c(c12)OCCCC3 [Compound 62, 2,6-dimethoxy-N-(6-(thiazol-2-yloxy)-2,3,4,5,9,10-hexahydrooxepino [3′,2′: 5,6]benzo[1,2-d]isoxazol-10-yl)benzenesulfonamide]",
6.48 10^-6 cm/s,COc1ccccc1S(=O)(=O)Nc1noc2cc(Oc3nccs3)c3c(c12)OCCCC3 [Compound 63],
9.00 10^-6 cm/s,COc1cc(C)nc(OC)c1S(=O)(=O)Nc1noc2cc(Oc3nccs3)c3c(c12)OCCCC3 [Compound 64],

# The next lines start with the compound.
SMILES,Mean Papp A to B [1],also measured
"COc1cccc(OC)c1S(=O)(=O)Nc1noc2cc(Oc3ccccn3)cc(OC)c12 [Compound 9, 2,6-dimethoxy-N-(4-methoxy-6-(pyridin-2-yloxy)benzo[d]isoxazol-3-yl)benzenesulfonamide]",11.8 10^-6 cm/s,
"COc1cccc(OC)c1S(=O)(=O)Nc1noc2cc(Cn3cccn3)c3c(c12)OCCC3 [Compound 14, N-(5-((1H-pyrazol-1-yl)methyl)-3,4-dihydro-2H-chromeno[8,7-d]isoxazol-9-yl)-2,6-dimethoxybenzenesulfonamide]",0.439 10^-6 cm/s,
"COc1cccc(OC)c1S(=O)(=O)Nc1noc2cc(Cn3cccn3)c3c(c12)OCCCC3 [Compound 19, N-(6-((1H-pyrazol-1-yl)methyl)-2,3,4,5,9,10-hexahydrooxepino [3′,2′: 5,6]benzo[1,2-d]isoxazol-10-yl)-2,6-dimethoxybenzenesulfonamide]",3.47 10^-6 cm/s,
"COc1cccc(OC)c1S(=O)(=O)Nc1noc2cc(Oc3ccccn3)cc(OC(F)F)c12 [Compound 22, N-(4-(difluoromethoxy)-6-(pyridin-2-yloxy)benzo[d]isoxazol-3-yl)-2,6-dimethoxybenzenesulfonamide]",3.45 10^-6 cm/s,
"COc1cccc(OC)c1S(=O)(=O)Nc1noc2cc(Oc3ccccn3)c3c(c12)OCC3 [Compound 23, 2,6-dimethoxy-N-(4-(pyridin-2-yloxy)-2,3-dihydrobenzofuro[7,6-d]isoxazol-8-yl)benzenesulfonamide]",1.30 10^-6 cm/s,
"COc1cccc(OC)c1S(=O)(=O)Nc1noc2cc(Cc3ccccn3)c3c(c12)OCCC3 [Compound 46, 2,6-dimethoxy-N-(5-(pyridin-2-ylmethyl)-3,4-dihydro-2H-chromeno[8,7-d]isoxazol-9-yl)benzenesulfonamide]",2.66 10^-6 cm/s,
"COc1cc(C)nc(OC)c1S(=O)(=O)Nc1noc2cc(Oc3nccs3)cc(OCF)c12 [Compound 55, N-(4-(fluoromethoxy)-6-(thiazol-2-yloxy)benzo[d]isoxazol-3-yl)-2,4-dimethoxy-6-methylpyridine-3-sulfonamide]",1.46 10^-6 cm/s,
"COc1cc(C)nc(OC)c1S(=O)(=O)Nc1noc2cc(Oc3nccs3)cc(OC)c12 [Compound 57, 2,4-dimethoxy-N-(4-methoxy-6-(thiazol-2-yloxy)benzo[d]isoxazol-3-yl)-6-methylpyridine-3-sulfonamide]",3.38 10^-6 cm/s,"TGI [2]: 67.7% and 83.8%; anti-tumor activity [2]: potent and dose-dependent anti-tumor activity; mean endpoint TV (tumor volume) [2]: 239 mm^3 and 189 mm^3; body weight [3]: maintained the body weight well; pIC50 ([4]; combination experiments, compound alone, 1 nM E2 (FIG. 3B), read-out: IC50 of dose-response curve, used alone (combination experiments)): 8.42; IC10 ([4]; single agent, 1 nM E2): 0.3 nM; IC25 ([4]; single agent, 1 nM E2): 1.2 nM; IC75 ([4]; single agent, 1 nM E2): 15 nM; pIC50 [4, 5]: 8.40; pIC50 ([4]; with elacestrant (IC25, 56 nM), 1 nM E2 (FIG. 3B), read-out: IC50 of dose-response curve, in combination with elacestrant): 9.10"
"COc1cccc(OC)c1S(=O)(=O)Nc1noc2cc(Oc3nccs3)cc(OC)c12 [Compound 59, 2,6-dimethoxy-N-(4-methoxy-6-(thiazol-2-yloxy)benzo[d]isoxazol-3-yl)benzenesulfonamide]",6.20 10^-6 cm/s,
COc1ccccc1S(=O)(=O)Nc1noc2cc(Cn3cccn3)cc(OC)c12 [Compound 70],,body weight [3]: maintained the body weight well
"CCNCCc1ccc(CN(CC)c2cc(OC)ccc2[C@@H]2CCc3cc(O)ccc3C2)cc1 [elacestrant, reference compound]",,"pIC50 ([4]; elacestrant single agent, 1 nM E2, read-out: IC50 (cytotoxic action)): 6.59; IC25 ([4]; elacestrant, 1 nM E2): 56 nM; IC10 ([4]; single agent, 1 nM E2): 10 nM; IC25 ([4]; single agent, 1 nM E2): 56 nM; IC75 ([4]; single agent, 1 nM E2, non clinically relevant dose): 1430 nM; pIC50 [4, 5]: 6.59"
